{
  "source": "patent US5405849A",
  "about": "“Angiotensin II receptor blocking 2,3,6 substituted quinazolinones” (American Cyanamid Company, priority 1993, dated 1995)",
  "key": {"angiotensin II receptors": {"biological_target": "angiotensin II receptors", "assay": "Angiotensin II receptor binding (displacement of 3H-angiotensin II), rat adrenocortical microsomes", "conditions": "2 nM 3H-angiotensin II", "procedure": "The source of the angiotensin II receptors utilized in the screen is from rat adrenocortical microsomes. The cortices are placed in ice cold sucrose buffer (0.2 m sucrose, 1 mm EDTA, 10 mm Trizma base, pH 7.4) and homogenized in a chilled ground glass tissue grinder. The homogenate is centrifuged at 3000×g for 10 min. and the resultant supernatant is decanted through cheesecloth and centrifuged at 12,000×g for 3 min. […] Binding assays are performed by incubating aliquots of freshly prepared microsomes in the absence or presence of compound (40 uM final concentration). Ten minutes later, ^3 H-angiotensin II is added to each tube (2 nM final concentration) and incubated for 60 minutes at […]. The reaction is terminated by the addition of 3 ml of cold assay buffer without albumin and the bound and free radioactivity is separated rapidly through glass-fiber filters prewetted with assay buffer. After two additional 3 ml rinses, the filters are placed in scintillation fluid and counted in a scintillation counter to determine trapped radioactivity."}, "[1]": {"tested_on": "angiotensin II (AII) vasopressor response", "assay": "AII challenge: antagonism of the vasopressor response of angiotensin II in conscious Okamoto-Aoki SHR", "assay_type": "in vivo, rat (Okamoto-Aoki SHR)", "conditions": "for inhibition in vivo at 30 mg/kg / inhibition in vivo at 1 mg/kg / inhibition in vivo at 2 mg/kg: Rattus norvegicus", "how_it_was_run": "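Conscious male Okamoto-Aoki spontaneously hypertensive rats, 16-20 weeks old and about 330 g, received caudal arterial and venous cannulae under local 2% procaine anesthesia. They were kept upright in restraining cages while pulsatile blood pressure was recorded by pressure transducer. The systolic pressure rise to i.v. angiotensin II was measured before and after test compound dosing. Inhibition was expressed relative to each rat's predose response, taken as 100%.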"}},
  "note": "Counter-ions that a name gives are not always drawn.",
  "data": [
    {"smiles": "CCCCc1nc2ccc(C(CC)OC)cc2c(=O)n1Cc1ccc(-c2ccccc2-c2nnn[nH]2)cc1", "note": "(stereo not shown) [Example 55, 2-Butyl-6-(1-methoxypropyl)-3-[[2'-(1H-tetrazol-5-yl) [1,1'-biphenyl]-4-yl]methyl]-4(3H) -quinazolinone]", "values": [
      {"measurement": "IC50", "setting": "angiotensin II receptors", "value": 5, "unit": "nM"},
      {"measurement": "Response change (systolic BP increase to AII)", "setting": "[1]; 30 mg/kg iv, AII .05 ug/kg, 30 min", "value": 10, "unit": "mmHg"},
      {"measurement": "Response change (systolic BP increase to AII)", "setting": "[1]; 30 mg/kg iv, AII .05 ug/kg, 90 min", "value": 15, "unit": "mmHg"},
      {"measurement": "Response change (systolic BP increase to AII)", "setting": "[1]; 30 mg/kg iv, AII .05 ug/kg, 150 min", "value": 20, "unit": "mmHg"},
      {"measurement": "Response change (systolic BP increase to AII)", "setting": "[1]; 30 mg/kg iv, AII .1 ug/kg, 30 min", "value": 15, "unit": "mmHg"},
      {"measurement": "Response change (systolic BP increase to AII)", "setting": "[1]; 30 mg/kg iv, AII .1 ug/kg, 90 min", "value": 5, "unit": "mmHg"},
      {"measurement": "Response change (systolic BP increase to AII)", "setting": "[1]; 30 mg/kg iv, AII .1 ug/kg, 150 min", "value": 5, "unit": "mmHg"},
      {"measurement": "inhibition in vivo at 30 mg/kg", "setting": "[1]; iv, 0.5 h, 30 mg/kg iv, AII .05 ug/kg, 30 min", "value": 82, "unit": "%"},
      {"measurement": "inhibition in vivo at 30 mg/kg", "setting": "[1]; iv, 0.5 h, 30 mg/kg iv, AII .1 ug/kg, 30 min", "value": 73, "unit": "%"},
      {"measurement": "inhibition in vivo at 30 mg/kg", "setting": "[1]; iv, 1.5 h, 30 mg/kg iv, AII .05 ug/kg, 90 min", "value": 73, "unit": "%"},
      {"measurement": "inhibition in vivo at 30 mg/kg", "setting": "[1]; iv, 1.5 h, 30 mg/kg iv, AII .1 ug/kg, 90 min", "value": 91, "unit": "%"},
      {"measurement": "inhibition in vivo at 30 mg/kg", "setting": "[1]; iv, 2.5 h, 30 mg/kg iv, AII .05 ug/kg, 150 min", "value": 64, "unit": "%"},
      {"measurement": "inhibition in vivo at 30 mg/kg", "setting": "[1]; iv, 2.5 h, 30 mg/kg iv, AII .1 ug/kg, 150 min", "value": 91, "unit": "%"}
    ]},
    {"smiles": "CCCCc1nc2ccc(C(C)(C)O)cc2c(=O)n1Cc1ccc(-c2ccccc2-c2nnn[nH]2)cc1", "note": "[Example 61, 2-Butyl-6-(1-hydroxy-1-methylethyl)-3-[[2'-(1H-(tetrazol-5-yl) [1,1'-biphenyl]-4-yl]methyl]-4(3H)-quinazolinone monosodium salt]", "values": [
      {"measurement": "Response change (systolic BP increase to AII)", "setting": "[1]; 1 mg/kg iv, AII .05 ug/kg, 30 min", "value": 40, "unit": "mmHg"},
      {"measurement": "Response change (systolic BP increase to AII)", "setting": "[1]; 1 mg/kg iv, AII .05 ug/kg, 45 min", "value": 25, "unit": "mmHg"},
      {"measurement": "Response change (systolic BP increase to AII)", "setting": "[1]; 1 mg/kg iv, AII .05 ug/kg, 90 min", "value": 45, "unit": "mmHg"},
      {"measurement": "Response change (systolic BP increase to AII)", "setting": "[1]; 1 mg/kg iv, AII .1 ug/kg, 30 min", "value": 55, "unit": "mmHg"},
      {"measurement": "Response change (systolic BP increase to AII)", "setting": "[1]; 1 mg/kg iv, AII .1 ug/kg, 45 min", "value": 40, "unit": "mmHg"},
      {"measurement": "Response change (systolic BP increase to AII)", "setting": "[1]; 1 mg/kg iv, AII .1 ug/kg, 90 min", "value": 65, "unit": "mmHg"},
      {"measurement": "Response change (systolic BP increase to AII)", "setting": "[1]; 2 mg/kg iv, AII .025 ug/kg, 30 min", "value": 0, "unit": "mmHg"},
      {"measurement": "Response change (systolic BP increase to AII)", "setting": "[1]; 2 mg/kg iv, AII .025 ug/kg, 90 min", "value": 0, "unit": "mmHg"},
      {"measurement": "Response change (systolic BP increase to AII)", "setting": "[1]; 2 mg/kg iv, AII .025 ug/kg, 150 min", "value": 0, "unit": "mmHg"},
      {"measurement": "Response change (systolic BP increase to AII)", "setting": "[1]; 2 mg/kg iv, AII .05 ug/kg, 30 min", "value": 0, "unit": "mmHg"},
      {"measurement": "Response change (systolic BP increase to AII)", "setting": "[1]; 2 mg/kg iv, AII .05 ug/kg, 90 min", "value": 0, "unit": "mmHg"},
      {"measurement": "Response change (systolic BP increase to AII)", "setting": "[1]; 2 mg/kg iv, AII .05 ug/kg, 120 min", "value": 25, "unit": "mmHg"},
      {"measurement": "Response change (systolic BP increase to AII)", "setting": "[1]; 2 mg/kg iv, AII .05 ug/kg, 180 min", "value": 40, "unit": "mmHg"},
      {"measurement": "Response change (systolic BP increase to AII)", "setting": "[1]; 2 mg/kg iv, AII .1 ug/kg, 30 min", "value": 0, "unit": "mmHg"},
      {"measurement": "Response change (systolic BP increase to AII)", "setting": "[1]; 2 mg/kg iv, AII .1 ug/kg, 90 min", "value": 0, "unit": "mmHg"},
      {"measurement": "Response change (systolic BP increase to AII)", "setting": "[1]; 2 mg/kg iv, AII .1 ug/kg, 120 min", "value": 50, "unit": "mmHg"},
      {"measurement": "Response change (systolic BP increase to AII)", "setting": "[1]; 2 mg/kg iv, AII .1 ug/kg, 180 min", "value": 45, "unit": "mmHg"},
      {"measurement": "inhibition in vivo at 1 mg/kg", "setting": "[1]; 0.5 h, 1 mg/kg iv, AII .05 ug/kg, 30 min", "value": 20, "unit": "%"},
      {"measurement": "inhibition in vivo at 1 mg/kg", "setting": "[1]; 0.75 h, 1 mg/kg iv, AII .05 ug/kg, 45 min", "value": 50, "unit": "%"},
      {"measurement": "inhibition in vivo at 2 mg/kg", "setting": "[1]; 2.5 h, 2 mg/kg iv, AII .05 ug/kg, 150 min", "value": 30, "unit": "%"},
      {"measurement": "inhibition in vivo at 1 mg/kg", "setting": "[1]; iv, 0.5 h, 1 mg/kg iv, AII .1 ug/kg, 30 min", "value": 8, "unit": "%"},
      {"measurement": "inhibition in vivo at 2 mg/kg", "setting": "[1]; iv, 0.5 h, 2 mg/kg iv, AII .025 ug/kg, 30 min", "value": 100, "unit": "%"},
      {"measurement": "inhibition in vivo at 2 mg/kg", "setting": "[1]; iv, 0.5 h, 2 mg/kg iv, AII .05 ug/kg, 30 min", "value": 100, "unit": "%"},
      {"measurement": "inhibition in vivo at 2 mg/kg", "setting": "[1]; iv, 0.5 h, 2 mg/kg iv, AII .1 ug/kg, 30 min", "value": 100, "unit": "%"},
      {"measurement": "inhibition in vivo at 1 mg/kg", "setting": "[1]; iv, 0.75 h, 1 mg/kg iv, AII .1 ug/kg, 45 min", "value": 33, "unit": "%"},
      {"measurement": "inhibition in vivo at 1 mg/kg", "setting": "[1]; iv, 1.5 h, 1 mg/kg iv, AII .05 ug/kg, 90 min", "value": 10, "unit": "%"},
      {"measurement": "inhibition in vivo at 1 mg/kg", "setting": "[1]; iv, 1.5 h, 1 mg/kg iv, AII .1 ug/kg, 90 min", "value": 8, "unit": "%"},
      {"measurement": "inhibition in vivo at 2 mg/kg", "setting": "[1]; iv, 1.5 h, 2 mg/kg iv, AII .025 ug/kg, 90 min", "value": 100, "unit": "%"},
      {"measurement": "inhibition in vivo at 2 mg/kg", "setting": "[1]; iv, 1.5 h, 2 mg/kg iv, AII .05 ug/kg, 90 min", "value": 100, "unit": "%"},
      {"measurement": "inhibition in vivo at 2 mg/kg", "setting": "[1]; iv, 1.5 h, 2 mg/kg iv, AII .1 ug/kg, 90 min", "value": 100, "unit": "%"},
      {"measurement": "inhibition in vivo at 2 mg/kg", "setting": "[1]; iv, 2 h, 2 mg/kg iv, AII .05 ug/kg, 120 min", "value": 50, "unit": "%"},
      {"measurement": "inhibition in vivo at 2 mg/kg", "setting": "[1]; iv, 2 h, 2 mg/kg iv, AII .1 ug/kg, 120 min", "value": 17, "unit": "%"},
      {"measurement": "inhibition in vivo at 2 mg/kg", "setting": "[1]; iv, 2.5 h, 2 mg/kg iv, AII .025 ug/kg, 150 min", "value": 100, "unit": "%"},
      {"measurement": "inhibition in vivo at 2 mg/kg", "setting": "[1]; iv, 2.5 h, 2 mg/kg iv, AII .05 ug/kg, 150 min", "value": 100, "unit": "%"},
      {"measurement": "inhibition in vivo at 2 mg/kg", "setting": "[1]; iv, 3 h, 2 mg/kg iv, AII .05 ug/kg, 180 min", "value": 20, "unit": "%"},
      {"measurement": "inhibition in vivo at 2 mg/kg", "setting": "[1]; iv, 3 h, 2 mg/kg iv, AII .1 ug/kg, 180 min", "value": 25, "unit": "%"}
    ]}
  ]
}
